Measurements from patent US20100298141A1, “SUBSTITUTED PYRIDINE N-OXIDE HERBICIDES” (E. I. DU PONT DE NEMOURS AND COMPANY, priority 2007, published 2010).

Tests used:
corn (ZEAMD) [1] = experiment: Test J preemergence mixtures of Compound 2 with crop safeners; assay type: in vivo, Zea mays cv. ‘Pioneer 33G26’; set-up: key to ZEAMD Obsd. (observed effect): observed % herbicidal effect; conditions: for ZEAMD Obsd. (observed effect): Test J, alone
From the text: (§1) Seeds of test plants consisting of winter wheat (TRZAW, Triticum aestivum) and corn (ZEAMD, Zea mays cv. ‘Pioneer 33G26’) were planted into a blend of loam soil and sand and treated preemergence with a directed soil spray using test chemicals formulated in a non-phytotoxic solvent mixture that included a surfactant. […] Balanced fertilizer was applied through the watering system. Treatments consisted of Compound 2 and the above mentioned safeners alone and in combination using a spray volume of 457 L/ha. Each treatment was replicated four times. […] A dash (-) response means no test result. Colby's Equation was used to determine the herbicidal effects expected from the mixtures. Colby's Equation (Colby, S. […] wherein • Pa+b is the percentage effect of the mixture expected from additive contribution of the individual components, • Pa is the observed percentage effect of the first active ingredient at the same use rate as in the mixture, and Pb is the observed percentage effect of the second active ingredient at the same use rate as in the mixture.

winter wheat (TRZAW) [2] = experiment: Test I preemergence mixtures of compound 2 with crop safeners; assay type: in vivo, Triticum aestivum; conditions: alone
From the text: (§2) Seeds of test plants consisting of winter wheat (TRZAW, Triticum aestivum), corn (ZEAMD, Zea mays cv. ‘Pioneer 33G26’), wild oat (AVEFA, Avena fatua), and Italian ryegrass (LOLMU, Lolium multiflorum) were planted into a blend of loam soil and sand and treated preemergence with a directed soil spray using test chemicals formulated in a non-phytotoxic solvent mixture that included a surfactant. Seeds of small-seeded species were planted about 1 cm deep; larger seeds were planted about 2.5 cm deep. […] Balanced fertilizer was applied through the watering system. Treatments consisted of Compound 2 and the above mentioned safeners alone and in combination using a spray volume of 457 L/ha. Each treatment was replicated four times. Treated plants and controls were maintained in a greenhouse for 14 to 21 days, after which time all species were compared to controls and visually evaluated. […] A dash (-) response means no test result. Colby's Equation was used to determine the herbicidal effects expected from the mixtures. Colby's Equation (Colby, S. […] Pa+b=Pa+Pb−(PaPb/100) wherein • Pa+b is the percentage effect of the mixture expected from additive contribution of the individual components, • Pa is the observed percentage effect of the first active ingredient at the same use rate as in the mixture, and • Pb is the observed percentage effect of the second active ingredient at the same use rate as in the mixture.

winter wheat (TRZAW) [3] = experiment: Test J preemergence mixtures of Compound 2 with crop safeners; assay type: in vivo, Triticum aestivum; set-up: key to TRZAW Obsd. (observed effect): observed % herbicidal effect; conditions: for TRZAW Obsd. (observed effect): Test J, alone
From the text: as §1

corn (ZEAMD) [4] = experiment: Test H preemergence mixtures of compound 2 with crop safeners; assay type: in vivo, Zea mays cv. ‘Pioneer 33G26’; set-up: key to ZEAMD Obsd. (observed effect): observed % effect, visually evaluated vs controls; conditions: for ZEAMD Obsd. (observed effect): Test H, alone; for Plant response rating ZEAMD Obsd.: scale 0 to 100
From the text: (§3) Seeds of test plants consisting of winter wheat (TRZAW, Triticum aestivum), corn (ZEAMD, Zea mays cv. ‘Pioneer 33G26’), giant foxtail (SETFA, Setaria faberi), and Italian ryegrass (LOLMU, Lolium multiflorum) were planted into a blend of loam soil and sand and treated preemergence with a directed soil spray using test chemicals formulated in a non-phytotoxic solvent mixture that included a surfactant. Seeds of small-seeded species were planted about 1 cm deep; larger seeds were planted about 2.5 cm deep. […] Balanced fertilizer was applied through the watering system. Treatments consisted of Compound 2 and the above mentioned safeners alone and in combination using a spray volume of 457 L/ha. Each treatment was replicated four times. Treated plants and controls were maintained in a greenhouse for 14 to 21 days, after which time all species were compared to controls and visually evaluated. […] A dash (-) response means no test result. Colby's Equation was used to determine the herbicidal effects expected from the mixtures. Colby's Equation (Colby, S. […] wherein • Pa+b is the percentage effect of the mixture expected from additive contribution of the individual components, • Pa is the observed percentage effect of the first active ingredient at the same use rate as in the mixture, and • Pb is the observed percentage effect of the second active ingredient at the same use rate as in the mixture.

giant foxtail (SETFA) = experiment: as above; assay type: in vivo, Setaria faberi; set-up: key to SETFA Obsd. (observed effect): observed % effect, visually evaluated vs controls; conditions: for SETFA Obsd. (observed effect): Test H, alone; for Plant response rating SETFA Obsd.: scale 0 to 100
From the text: as §3

corn (ZEAMD) [5] = experiment: Test I preemergence mixtures of compound 2 with crop safeners; assay type: in vivo, Zea mays cv. ‘Pioneer 33G26’; conditions: alone
From the text: as §2

Italian ryegrass (LOLMU) [6] = experiment: as above; assay type: in vivo, Lolium multiflorum; conditions: alone
From the text: as §2

Italian ryegrass (LOLMU) [7] = experiment: Test H preemergence mixtures of compound 2 with crop safeners; assay type: in vivo, Lolium multiflorum; set-up: key to LOLMU Obsd. (observed effect): observed % effect, visually evaluated vs controls; conditions: for LOLMU Obsd. (observed effect): Test H, alone; for Plant response rating LOLMU Obsd.: scale 0 to 100
From the text: as §3

winter wheat (TRZAW) [8] = experiment: as above; assay type: in vivo, Triticum aestivum; set-up: key to TRZAW Obsd. (observed effect): observed % effect, visually evaluated vs controls; conditions: for TRZAW Obsd. (observed effect): Test H, alone; for Plant response rating TRZAW Obsd.: scale 0 to 100
From the text: as §3

wild oat (AVEFA) = experiment: Test I preemergence mixtures of compound 2 with crop safeners; assay type: in vivo, Avena fatua; conditions: alone
From the text: as §2

[9] = cloquintocet-mexyl alone 8 g a.i./ha
[10] = cloquintocet-mexyl alone 16 g a.i./ha
[11] = cloquintocet-mexyl alone 31 g a.i./ha

SMILES	TRZAW Obsd. (observed effect) (winter wheat (TRZAW) [2]; 4 g a.i./ha)	TRZAW Obsd. (observed effect) (winter wheat (TRZAW) [2]; 8 g a.i./ha)	ZEAMD Obsd. (observed effect) (corn (ZEAMD) [4]; 8 g a.i./ha)	ZEAMD Obsd. (observed effect) (corn (ZEAMD) [4]; 16 g a.i./ha)	ZEAMD Obsd. (observed effect) (corn (ZEAMD) [4]; 31 g a.i./ha)	SETFA Obsd. (observed effect) (giant foxtail (SETFA); 8 g a.i./ha)	SETFA Obsd. (observed effect) (giant foxtail (SETFA); 16 g a.i./ha)	SETFA Obsd. (observed effect) (giant foxtail (SETFA); 31 g a.i./ha)	ZEAMD Obsd. (observed effect) (corn (ZEAMD) [5]; 4 g a.i./ha)	ZEAMD Obsd. (observed effect) (corn (ZEAMD) [5]; 8 g a.i./ha)	LOLMU Obsd. (observed effect) (Italian ryegrass (LOLMU) [6]; 4 g a.i./ha)	LOLMU Obsd. (observed effect) (Italian ryegrass (LOLMU) [6]; 8 g a.i./ha)	LOLMU Obsd. (observed effect) (Italian ryegrass (LOLMU) [7]; 8 g a.i./ha)	LOLMU Obsd. (observed effect) (Italian ryegrass (LOLMU) [7]; 16 g a.i./ha)	LOLMU Obsd. (observed effect) (Italian ryegrass (LOLMU) [7]; 31 g a.i./ha)	TRZAW Obsd. (observed effect) (winter wheat (TRZAW) [8]; 8 g a.i./ha)	TRZAW Obsd. (observed effect) (winter wheat (TRZAW) [8]; 16 g a.i./ha)	TRZAW Obsd. (observed effect) (winter wheat (TRZAW) [8]; 31 g a.i./ha)	AVEFA Obsd. (observed effect) (wild oat (AVEFA); 4 g a.i./ha)	AVEFA Obsd. (observed effect) (wild oat (AVEFA); 8 g a.i./ha)	other results
CC1COc2ccccc2N1C(=O)C(Cl)Cl (stereo not shown) [benoxacor]	0	0	0	0	0	0	3	0	0	0	0	0	0	0	0	0	0	0	0	0	ZEAMD Obsd. (observed effect) (corn (ZEAMD) [1]; 8 g a.i./ha): 0; ZEAMD Obsd. (observed effect) (corn (ZEAMD) [1]; 31 g a.i./ha): 0; ZEAMD Obsd. (observed effect) (corn (ZEAMD) [1]; 125 g a.i./ha): 0; ZEAMD Obsd. (observed effect) (corn (ZEAMD) [1]; 500 g a.i./ha): 0; TRZAW Obsd. (observed effect) (winter wheat (TRZAW) [3]; 8 g a.i./ha): 0; TRZAW Obsd. (observed effect) (winter wheat (TRZAW) [3]; 31 g a.i./ha): 0; TRZAW Obsd. (observed effect) (winter wheat (TRZAW) [3]; 125 g a.i./ha): 0; TRZAW Obsd. (observed effect) (winter wheat (TRZAW) [3]; 500 g a.i./ha): 0
CCCCCC(C)OC(=O)COc1ccc(Cl)c2cccnc12 (stereo not shown) [cloquintocet-mexyl]	0	0	–	–	–	–	–	–	0	0	0	0	–	–	–	–	–	–	0	0	Plant response rating ZEAMD Obsd. (corn (ZEAMD) [4]; [9]): 0; Plant response rating ZEAMD Obsd. (corn (ZEAMD) [4]; [10]): 0; Plant response rating ZEAMD Obsd. (corn (ZEAMD) [4]; [11]): 0; Plant response rating SETFA Obsd. (giant foxtail (SETFA); [9]): 5; Plant response rating SETFA Obsd. (giant foxtail (SETFA); [10]): 3; Plant response rating SETFA Obsd. (giant foxtail (SETFA); [11]): 8; Plant response rating LOLMU Obsd. (Italian ryegrass (LOLMU) [7]; [9]): 0; Plant response rating LOLMU Obsd. (Italian ryegrass (LOLMU) [7]; [10]): 8; Plant response rating LOLMU Obsd. (Italian ryegrass (LOLMU) [7]; [11]): 0; Plant response rating TRZAW Obsd. (winter wheat (TRZAW) [8]; [9]): 0; Plant response rating TRZAW Obsd. (winter wheat (TRZAW) [8]; [10]): 0; Plant response rating TRZAW Obsd. (winter wheat (TRZAW) [8]; [11]): 0
C=CCN(CC=C)C(=O)C(Cl)Cl [dichlormid]	0	0	0	0	0	0	0	3	0	0	0	0	0	0	0	0	0	0	0	0	Observed effect (Obsd.), ZEAMD (corn (ZEAMD) [1]; safener alone at 8 g a.i./ha): 0%; Observed effect (Obsd.), ZEAMD (corn (ZEAMD) [1]; safener alone at 31 g a.i./ha): 0%; Observed effect (Obsd.), ZEAMD (corn (ZEAMD) [1]; safener alone at 500 g a.i./ha): 0%; Observed effect (Obsd.), TRZAW (winter wheat (TRZAW) [3]; safener alone at 8 g a.i./ha): 0%; Observed effect (Obsd.), TRZAW (winter wheat (TRZAW) [3]; safener alone at 31 g a.i./ha): 0%
CCOC(=O)C1=NOC(c2ccccc2)(c2ccccc2)C1 [isoxadifen-ethyl]	0	0	0	0	0	0	0	3	0	0	0	0	0	0	0	0	0	0	0	0	Observed effect (Obsd.), ZEAMD (corn (ZEAMD) [1]; safener alone at 8 g a.i./ha): 0%; Observed effect (Obsd.), ZEAMD (corn (ZEAMD) [1]; safener alone at 31 g a.i./ha): 0%; Observed effect (Obsd.), ZEAMD (corn (ZEAMD) [1]; safener alone at 500 g a.i./ha): 0%; Observed effect (Obsd.), ZEAMD (corn (ZEAMD) [1]; single active ingredient alone at 125 g a.i./ha): 0%; Observed effect (Obsd.), TRZAW (winter wheat (TRZAW) [3]; safener alone at 8 g a.i./ha): 0%; Observed effect (Obsd.), TRZAW (winter wheat (TRZAW) [3]; safener alone at 31 g a.i./ha): 0%; Observed effect (Obsd.), TRZAW (winter wheat (TRZAW) [3]; safener alone at 500 g a.i./ha): 0%
